Measurements taken from ChEMBL document CHEMBL5113511, “Discovery of Small-Molecule Degraders of the CDK9-Cyclin T1 Complex for Targeting Transcriptional Addiction in Prostate Cancer” (J Med Chem, 2022).
Activity calls are given as the source filed them. No cut-off for these calls is given here.

Key:
Cyclin-T1 [1] = target: T1, Cyclin-T1 (Homo sapiens, UniProt O60563); assay: Induction of HyT-mediated degradation of Cyclin T1 in human 22Rv1 cells at 0.3 to 3 uM incubated for 24 hrs by immunoblot analysis; assay type: cell-based; settings: dose 0.3-3 µM
T1 sequence (O60563 whole entry): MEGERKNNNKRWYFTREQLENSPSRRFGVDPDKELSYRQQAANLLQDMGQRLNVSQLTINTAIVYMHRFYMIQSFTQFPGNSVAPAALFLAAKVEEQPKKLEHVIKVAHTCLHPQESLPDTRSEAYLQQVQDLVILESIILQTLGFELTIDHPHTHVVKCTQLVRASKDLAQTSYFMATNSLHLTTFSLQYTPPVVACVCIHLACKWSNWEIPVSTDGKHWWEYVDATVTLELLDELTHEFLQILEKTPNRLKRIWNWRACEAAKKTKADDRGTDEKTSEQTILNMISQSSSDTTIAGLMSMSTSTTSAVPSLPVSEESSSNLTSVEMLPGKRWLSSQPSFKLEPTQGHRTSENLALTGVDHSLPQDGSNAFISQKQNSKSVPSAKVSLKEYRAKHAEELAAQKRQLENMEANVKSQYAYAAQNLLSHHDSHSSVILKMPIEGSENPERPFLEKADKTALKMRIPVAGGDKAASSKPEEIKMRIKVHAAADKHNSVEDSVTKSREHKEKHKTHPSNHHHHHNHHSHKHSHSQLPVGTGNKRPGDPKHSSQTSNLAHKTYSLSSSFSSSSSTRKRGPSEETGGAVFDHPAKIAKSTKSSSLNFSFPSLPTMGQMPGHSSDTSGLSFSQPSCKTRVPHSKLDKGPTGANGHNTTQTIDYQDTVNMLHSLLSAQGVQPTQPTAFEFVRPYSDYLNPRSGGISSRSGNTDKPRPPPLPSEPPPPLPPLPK

Cyclin-T2 (Homo sapiens) = Cyclin-T2 (Homo sapiens) (UniProt O60583); assay: Induction of HyT-mediated degradation of cyclin T2 in human 22Rv1 cells assessed as reduction in cyclin T2 level at 3 to 6 uM incubated for 24 hrs by immunoblot analysis; assay type: cell-based; settings: dose 3-6 µM
Cyclin-T2 (Homo sapiens), sequence (O60583 whole entry): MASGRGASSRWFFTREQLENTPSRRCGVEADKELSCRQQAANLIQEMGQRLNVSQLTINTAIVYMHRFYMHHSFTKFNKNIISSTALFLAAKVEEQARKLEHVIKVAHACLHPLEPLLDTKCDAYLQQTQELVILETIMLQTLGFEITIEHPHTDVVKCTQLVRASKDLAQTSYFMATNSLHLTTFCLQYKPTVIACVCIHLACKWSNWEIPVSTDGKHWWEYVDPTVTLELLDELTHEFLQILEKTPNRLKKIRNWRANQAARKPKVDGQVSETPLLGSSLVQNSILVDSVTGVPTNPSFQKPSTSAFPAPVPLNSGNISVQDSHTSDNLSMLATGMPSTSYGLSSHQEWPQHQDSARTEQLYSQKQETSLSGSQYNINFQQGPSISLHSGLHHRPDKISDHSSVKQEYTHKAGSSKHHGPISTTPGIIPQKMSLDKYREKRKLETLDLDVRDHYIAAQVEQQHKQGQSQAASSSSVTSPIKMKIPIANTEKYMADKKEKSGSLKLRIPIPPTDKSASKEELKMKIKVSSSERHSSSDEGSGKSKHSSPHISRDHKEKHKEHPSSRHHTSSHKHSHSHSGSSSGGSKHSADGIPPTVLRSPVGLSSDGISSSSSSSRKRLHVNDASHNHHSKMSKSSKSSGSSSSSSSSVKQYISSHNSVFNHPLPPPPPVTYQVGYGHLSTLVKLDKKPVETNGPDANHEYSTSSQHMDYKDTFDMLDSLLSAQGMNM

[2] = target: T2, CDK9/cyclin T1 (Homo sapiens) (UniProt O60563+P50750); assay: Induction of CDK9/Cyclin T1 degradation in human 22Rv1 cells assessed as downregulation of c-Myc protein expression at 0.3 to 3 uM measured after 24 hrs by immunoblot analysis; assay type: cell-based; settings: dose 0.3-3 µM
Cyclin-T1 [3] = target: T1, Cyclin-T1; assay: Induction of HA-tagged Cyclin T1 (unknown origin) polyubiquitination expressed in HEK293T cells co-transfected with Flag-tagged CDK9 and Myc ubiquitin assessed as increase in K48-linkage poly-ubiqutinated Cyclin T1 level at 1 to 2 uM incubated for 20 hrs by western blot analysis; assay type: cell-based; settings: dose 1-2 µM
Cyclin-T1 [4] = target: T1, Cyclin-T1; assay: Induction of HyT-mediated degradation of Cyclin T1 in human 22Rv1 cells assessed as reduction in Cyclin T1 protein level at 3 uM measured after 24 to 48 hrs by immunoblot analysis; assay type: cell-based; settings: time 24-48 hrs
[5] = target: Cyclin-dependent kinase 6 (Homo sapiens) (UniProt Q00534); assay: Induction of CDK6 degradation in human 22Rv1 cells assessed as downregulation of CDK6 level at 3 uM measured after 12 hrs by DIA-based proteomics analysis; assay type: cell-based
Cyclin-dependent kinase 6 (Homo sapiens), sequence (Q00534 whole entry): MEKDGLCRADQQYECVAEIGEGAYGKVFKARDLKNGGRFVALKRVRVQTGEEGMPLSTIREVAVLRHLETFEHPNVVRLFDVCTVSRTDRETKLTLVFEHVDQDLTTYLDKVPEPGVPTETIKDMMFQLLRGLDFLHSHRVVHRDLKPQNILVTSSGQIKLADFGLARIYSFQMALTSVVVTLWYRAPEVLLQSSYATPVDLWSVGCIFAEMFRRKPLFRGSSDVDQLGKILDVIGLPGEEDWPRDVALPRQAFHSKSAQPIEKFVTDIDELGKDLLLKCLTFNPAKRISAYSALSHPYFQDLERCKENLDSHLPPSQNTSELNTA

CWR22R [6] = assay: Downregulation of CDK6 level in human 22Rv1 cells at 3 uM measured after 12 hrs by DIA-based proteomics analysis; assay type: functional, cell-based
[7] = target: T2, CDK9/cyclin T1 (Homo sapiens); assay: Induction of CDK9/Cyclin T1 degradation in human 22Rv1 cells assessed as decrease in cyclin A2 protein expression at 3 uM measured for 36 hrs by DIA-based proteomics analysis; assay type: cell-based
[8] = target: T2, CDK9/cyclin T1 (Homo sapiens); assay: Induction of CDK9/Cyclin T1 degradation in human 22Rv1 cells assessed as downregulation of JMJD6 protein expression at 2 uM measured after 24 hrs by immunoblot analysis; assay type: cell-based
[9] = target: T2, CDK9/cyclin T1 (Homo sapiens); assay: Induction of CDK9/Cyclin T1 degradation in human 22Rv1 cells assessed as downregulation of AR protein expression at 3 uM measured for 36 hrs by DIA-based proteomics analysis; assay type: cell-based
[10] = target: T2, CDK9/cyclin T1 (Homo sapiens); assay: Induction of CDK9/Cyclin T1 degradation in human 22Rv1 cells assessed as downregulation of AR-V7 splice variant protein expression at 2 uM measured after 24 hrs by immunoblot analysis; assay type: cell-based
[11] = target: T2, CDK9/cyclin T1 (Homo sapiens); assay: Induction of CDK9/Cyclin T1 degradation in human 22Rv1 cells assessed as downregulation of AR-V7 splice variant protein expression at 2 uM measured after 48 hrs by immunoblot analysis relative to control; assay type: cell-based
[12] = target: T2, CDK9/cyclin T1 (Homo sapiens); assay: Induction of CDK9/Cyclin T1 degradation in human 22Rv1 cells assessed as downregulation of c-Myc protein expression at 2 uM measured after 48 hrs by immunoblot analysis; assay type: cell-based
[13] = target: T2, CDK9/cyclin T1 (Homo sapiens); assay: Induction of CDK9/Cyclin T1 degradation in human 22Rv1 cells assessed as downregulation of AR protein expression at 0.3 to 3 uM measured after 24 hrs by immunoblot analysis; assay type: cell-based; settings: dose 0.3-3 µM
[14] = target: T2, CDK9/cyclin T1 (Homo sapiens); assay: Induction of CDK9/Cyclin T1 degradation in human 22Rv1 cells assessed as downregulation of c-Myc protein expression at 2 uM measured after 24 hrs by immunoblot analysis; assay type: cell-based
CWR22R [15] = assay: Antiproliferative activity against human 22Rv1 cells assessed as reduction in cell viability measured after 5 days by CellTiter-Glo assay; assay type: functional, cell-based; settings: 22Rv1, 120 h
CWR22R [16] = assay: Inhibition of colony formation in human 22Rv1 cells at 100 to 200 nM treated for 14 days with replacement with fresh medium containing compound for every 48 hrs by crystal violet staining based analysis; assay type: functional, cell-based; settings: dose 100-200 nM, time 14.0 day
CWR22R [17] = assay: Induction of cell cycle arrest in human 22Rv1 cells assessed as accumulation of cells at G1 phase at 0.3 to 1 uM incubated for 24 hrs by propidium iodide staining based flow cytometry; assay type: functional; settings: dose 0.3-1 µM
CWR22R [18] = assay: Induction of apoptosis in human 22Rv1 cells at 0.3 to 1 uM incubated for 24 hrs by AnnexinV-FITC/PI staining based flow cytometry; assay type: functional, cell-based; settings: dose 0.3-1 µM
[19] = target: T2, CDK9/cyclin T1 (Homo sapiens); assay: Induction of CDK9/Cyclin T1 degradation in human 22Rv1 cells assessed as inhibition of Ser2 phosphorylation of RNA Pol II CTD at 0.3 to 3 uM incubated for 24 hrs by immunoblot analysis; assay type: cell-based; settings: dose 0.3-3 µM
[20] = target: T2, CDK9/cyclin T1 (Homo sapiens); assay: Induction of CDK9/Cyclin T1 degradation in human 22Rv1 cells assessed as downregulation of MCL1 protein expression at 0.3 to 3 uM incubated for 24 hrs by immunoblot analysis; assay type: cell-based; settings: dose 0.3-3 µM
[21] = target: T2, CDK9/cyclin T1 (Homo sapiens); assay: Induction of CDK9/Cyclin T1 degradation in human 22Rv1 cells assessed as downregulation of NKX3-1 protein expression at 0.3 to 3 uM incubated fo 24 hrs by immunoblot analysis; assay type: cell-based; settings: dose 0.3-3 µM
[22] = target: T2, CDK9/cyclin T1 (Homo sapiens); assay: Induction of CDK9/Cyclin T1 degradation in human 22Rv1 cells assessed as downregulation of KLK3 protein expression at 0.3 to 3 uM incubated fo 24 hrs by immunoblot analysis; assay type: cell-based; settings: dose 0.3-3 µM
[23] = target: T2, CDK9/cyclin T1 (Homo sapiens); assay: Induction of CDK9/Cyclin T1 degradation in human 22Rv1 cells assessed as downregulation of NAT1 gene expression at 2 uM incubated for 24 hrs by RNA-Seq based analysis; assay type: cell-based
[24] = target: T2, CDK9/cyclin T1 (Homo sapiens); assay: Induction of CDK9/Cyclin T1 degradation in human 22Rv1 cells assessed as downregulation of NKX3-1 gene expression at 2 uM incubated for 24 hrs by RNA-Seq based analysis; assay type: cell-based
[25] = target: T2, CDK9/cyclin T1 (Homo sapiens); assay: Induction of CDK9/Cyclin T1 degradation in human 22Rv1 cells assessed as downregulation of CDK20 gene expression at 2 uM incubated for 24 hrs by RNA-Seq based analysis; assay type: cell-based
[26] = target: T2, CDK9/cyclin T1 (Homo sapiens); assay: Induction of CDK9/Cyclin T1 degradation in human 22Rv1 cells assessed as downregulation of VIM gene expression at 2 uM incubated for 24 hrs by RNA-Seq based analysis; assay type: cell-based
[27] = target: T2, CDK9/cyclin T1 (Homo sapiens); assay: Induction of CDK9/Cyclin T1 degradation in human 22Rv1 cells assessed as downregulation of CDC6 gene expression at 2 uM incubated for 24 hrs by RNA-Seq based analysis; assay type: cell-based
[28] = target: T2, CDK9/cyclin T1 (Homo sapiens); assay: Induction of CDK9/Cyclin T1 degradation in human 22Rv1 cells assessed as downregulation of KLK15 gene expression at 2 uM incubated for 24 hrs by RNA-Seq based analysis; assay type: cell-based
[29] = target: T2, CDK9/cyclin T1 (Homo sapiens); assay: Induction of CDK9/Cyclin T1 degradation in human 22Rv1 cells assessed as downregulation of IKBKE gene expression at 2 uM incubated for 24 hrs by RNA-Seq based analysis; assay type: cell-based
[30] = target: T2, CDK9/cyclin T1 (Homo sapiens); assay: Induction of CDK9/Cyclin T1 degradation in human 22Rv1 cells assessed as downregulation of MYCN gene expression at 2 uM incubated for 24 hrs by RNA-Seq based analysis; assay type: cell-based
[31] = target: T2, CDK9/cyclin T1 (Homo sapiens); assay: Induction of CDK9/Cyclin T1 degradation in human 22Rv1 cells assessed as downregulation of SLC1A5 gene expression at 2 uM incubated for 24 hrs by RNA-Seq based analysis; assay type: cell-based

Activity (Cyclin-T1 [1]): Active
Activity (Cyclin-T2 (Homo sapiens)): Active
Activity [2]: Active
Activity (Cyclin-T1 [3]): Active
Activity (Cyclin-T1 [4]): Active
Activity [5]: Active
Activity [7]: Active
Activity [8]: Active
Activity [9]: Active
Activity [10]: Active
Activity [11]: 100%
Activity [12]: Active
Activity [13]: Active
Activity [14]: Active
Activity [19]: Active
Activity [20]: Active
Activity [21]: Active
Activity [22]: Active
Activity [23]: Active
Activity [24]: Active
Activity [25]: Active
Activity [26]: Active
Activity [27]: Active
Activity [28]: Active
Activity [29]: Active
Activity [30]: Active
Activity [31]: Active
Compound: CC(C)[C@@H]1CC[C@@H](C)C[C@H]1OCC(=O)NCCS(=O)(=O)N1CCC(C(=O)Nc2ncc(SCc3ncc(C(C)(C)C)o3)s2)CC1
inhibition (CWR22R [6]): Active
IC50 (CWR22R [15]): 0.095 µM
inhibition (CWR22R [16]): Active
Activity (CWR22R [17]): Active
Activity (CWR22R [18]): Active
